Species: Rattus norvegicus
Test: Open TG-GATES - Regimen: Single
Type: toxicity, organism-based, Sprague-Dawley
Parameters: regimen Single, gender Male, age 6 weeks
Conditions: in vivo, po, 24 h, route gavage; for Bas / Eos / Hb / Ht / Lym / MCH / MCHC / MCV / Mono / Neu / Plat / RBC / Ret / WBC: tissue Blood; for KIDNEY_L / KIDNEY_R / KIDNEY_TOTAL: tissue Kidney; for LIVER: tissue Liver; for A/G / ALP / ALT / AST / BUN / CRE / Ca / Cl / DBIL / GLC / IP / K / LDH / Na / PL / RALB / TBIL / TC / TG / TP / gamma-GTP: tissue Plasma

With `O=[N+]([O-])c1ccc2c(c1)Cc1ccccc1-2` [2-NITROFLUORENE] the TERMINAL_BW (0 mg/kg, dose level Control) was 226.9 g, the Bas (0 mg/kg, dose level Control) was 0% and the Eos (0 mg/kg, dose level Control) was 0.8%. The Hb (0 mg/kg, dose level Control) was 12.7 g/dL, the Ht (0 mg/kg, dose level Control) was 38.9% and the Lym (0 mg/kg, dose level Control) was 78.4%. It also gave an MCH (0 mg/kg, dose level Control) of 20.5 pg, an MCHC (0 mg/kg, dose level Control) of 32.5% and an MCV (0 mg/kg, dose level Control) of 63.1 fL. It also gave a Mono (0 mg/kg, dose level Control) of 3.2%, a Neu (0 mg/kg, dose level Control) of 16.8% and a Plat (0 mg/kg, dose level Control) of 121 x10_4/uL. For the same compound, the RBC (0 mg/kg, dose level Control) was 618 x10_4/ul, the Ret (0 mg/kg, dose level Control) was 8.6% and the WBC (0 mg/kg, dose level Control) was 96.1 x10_2/uL. It also gave a KIDNEY_L (0 mg/kg, dose level Control) of 0.9 g, a KIDNEY_R (0 mg/kg, dose level Control) of 0.9 g and a KIDNEY_TOTAL (0 mg/kg, dose level Control) of 1.9 g. It also gave an LIVER (0 mg/kg, dose level Control) of 10.2 g, an A/G (0 mg/kg, dose level Control) of 1.1 and an ALP (0 mg/kg, dose level Control) of 1444.8 IU/L. For the same compound, the ALT (0 mg/kg, dose level Control) was 41.6 IU/L, the AST (0 mg/kg, dose level Control) was 69.6 IU/L and the BUN (0 mg/kg, dose level Control) was 16.6 mg/dL. The CRE (0 mg/kg, dose level Control) was 0.2 mg/dL, the Ca (0 mg/kg, dose level Control) was 10.7 mg/dL and the Cl (0 mg/kg, dose level Control) was 104.2 meq/L. The DBIL (0 mg/kg, dose level Control) was 0.006 mg/dL, the GLC (0 mg/kg, dose level Control) was 193.2 mg/dL and the IP (0 mg/kg, dose level Control) was 6.8 mg/dL. The K (0 mg/kg, dose level Control) was 4.1 meq/L, the LDH (0 mg/kg, dose level Control) was 153.2 IU/L and the Na (0 mg/kg, dose level Control) was 141.1 meq/L. For the same compound, the PL (0 mg/kg, dose level Control) was 149 mg/dL, the RALB (0 mg/kg, dose level Control) was 2.8 g/dL and the TBIL (0 mg/kg, dose level Control) was 0 mg/dL. It also gave a TC (0 mg/kg, dose level Control) of 79.8 mg/dL, a TG (0 mg/kg, dose level Control) of 105.8 mg/dL and a TP (0 mg/kg, dose level Control) of 5.4 g/dL. For the same compound, the gamma-GTP (0 mg/kg, dose level Control) was 0.7 IU/L, the TERMINAL_BW (100 mg/kg, dose level Low) was 220.2 g and the Bas (100 mg/kg, dose level Low) was 0%. For the same compound, the Eos (100 mg/kg, dose level Low) was 0.2%, the Hb (100 mg/kg, dose level Low) was 12.8 g/dL and the Ht (100 mg/kg, dose level Low) was 39.6%. The Lym (100 mg/kg, dose level Low) was 79.6%, the MCH (100 mg/kg, dose level Low) was 20.4 pg and the MCHC (100 mg/kg, dose level Low) was 32.5%. For the same compound, the MCV (100 mg/kg, dose level Low) was 62.8 fL, the Mono (100 mg/kg, dose level Low) was 3.6% and the Neu (100 mg/kg, dose level Low) was 15.4%. It also gave a Plat (100 mg/kg, dose level Low) of 123.5 x10_4/uL, an RBC (100 mg/kg, dose level Low) of 631.6 x10_4/ul and a Ret (100 mg/kg, dose level Low) of 8.1%. The WBC (100 mg/kg, dose level Low) was 113.4 x10_2/uL, the KIDNEY_L (100 mg/kg, dose level Low) was 0.9 g and the KIDNEY_R (100 mg/kg, dose level Low) was 1 g. The KIDNEY_TOTAL (100 mg/kg, dose level Low) was 1.9 g, the LIVER (100 mg/kg, dose level Low) was 10.1 g and the A/G (100 mg/kg, dose level Low) was 1.2. For the same compound, the ALP (100 mg/kg, dose level Low) was 1937 IU/L, the ALT (100 mg/kg, dose level Low) was 39.8 IU/L and the AST (100 mg/kg, dose level Low) was 82.2 IU/L. The BUN (100 mg/kg, dose level Low) was 15.6 mg/dL, the CRE (100 mg/kg, dose level Low) was 0.2 mg/dL and the Ca (100 mg/kg, dose level Low) was 10.5 mg/dL. The Cl (100 mg/kg, dose level Low) was 105.3 meq/L, the DBIL (100 mg/kg, dose level Low) was 0.02 mg/dL and the GLC (100 mg/kg, dose level Low) was 174.6 mg/dL. For the same compound, the IP (100 mg/kg, dose level Low) was 6.7 mg/dL, the K (100 mg/kg, dose level Low) was 4.3 meq/L and the LDH (100 mg/kg, dose level Low) was 259.2 IU/L. It also gave a Na (100 mg/kg, dose level Low) of 139.7 meq/L, a PL (100 mg/kg, dose level Low) of 124.6 mg/dL and an RALB (100 mg/kg, dose level Low) of 2.8 g/dL. It also gave a TBIL (100 mg/kg, dose level Low) of 0.012 mg/dL, a TC (100 mg/kg, dose level Low) of 64.2 mg/dL and a TG (100 mg/kg, dose level Low) of 64.7 mg/dL. For the same compound, the TP (100 mg/kg, dose level Low) was 5.2 g/dL, the gamma-GTP (100 mg/kg, dose level Low) was 0.7 IU/L and the TERMINAL_BW (300 mg/kg, dose level Middle) was 216.7 g. For the same compound, the Bas (300 mg/kg, dose level Middle) was 0%, the Eos (300 mg/kg, dose level Middle) was 0.4% and the Hb (300 mg/kg, dose level Middle) was 13.1 g/dL. The Ht (300 mg/kg, dose level Middle) was 40.4%, the Lym (300 mg/kg, dose level Middle) was 73.4% and the MCH (300 mg/kg, dose level Middle) was 20.4 pg. The MCHC (300 mg/kg, dose level Middle) was 32.6%, the MCV (300 mg/kg, dose level Middle) was 62.6 fL and the Mono (300 mg/kg, dose level Middle) was 6%. It also gave a Neu (300 mg/kg, dose level Middle) of 18.2%, a Plat (300 mg/kg, dose level Middle) of 124.8 x10_4/uL and an RBC (300 mg/kg, dose level Middle) of 645 x10_4/ul. It also gave a Ret (300 mg/kg, dose level Middle) of 8.6%, a WBC (300 mg/kg, dose level Middle) of 91 x10_2/uL and a KIDNEY_L (300 mg/kg, dose level Middle) of 1 g. It also gave a KIDNEY_R (300 mg/kg, dose level Middle) of 1 g, a KIDNEY_TOTAL (300 mg/kg, dose level Middle) of 1.9 g and an LIVER (300 mg/kg, dose level Middle) of 9.6 g. It also gave an A/G (300 mg/kg, dose level Middle) of 1.2, an ALP (300 mg/kg, dose level Middle) of 1406.4 IU/L and an ALT (300 mg/kg, dose level Middle) of 35 IU/L. For the same compound, the AST (300 mg/kg, dose level Middle) was 83.2 IU/L, the BUN (300 mg/kg, dose level Middle) was 16.3 mg/dL and the CRE (300 mg/kg, dose level Middle) was 0.2 mg/dL. For the same compound, the Ca (300 mg/kg, dose level Middle) was 10.2 mg/dL, the Cl (300 mg/kg, dose level Middle) was 104.9 meq/L and the DBIL (300 mg/kg, dose level Middle) was 0.02 mg/dL. For the same compound, the GLC (300 mg/kg, dose level Middle) was 165.6 mg/dL, the IP (300 mg/kg, dose level Middle) was 7.7 mg/dL and the K (300 mg/kg, dose level Middle) was 4.5 meq/L. For the same compound, the LDH (300 mg/kg, dose level Middle) was 203 IU/L, the Na (300 mg/kg, dose level Middle) was 139.3 meq/L and the PL (300 mg/kg, dose level Middle) was 115.2 mg/dL. It also gave an RALB (300 mg/kg, dose level Middle) of 2.8 g/dL, a TBIL (300 mg/kg, dose level Middle) of 0.022 mg/dL and a TC (300 mg/kg, dose level Middle) of 61.2 mg/dL. For the same compound, the TG (300 mg/kg, dose level Middle) was 47.3 mg/dL, the TP (300 mg/kg, dose level Middle) was 5.2 g/dL and the gamma-GTP (300 mg/kg, dose level Middle) was 0.7 IU/L. It also gave a TERMINAL_BW (1000 mg/kg, dose level High) of 211.8 g, a Bas (1000 mg/kg, dose level High) of 0% and an Eos (1000 mg/kg, dose level High) of 0.4%. The Hb (1000 mg/kg, dose level High) was 13.6 g/dL, the Ht (1000 mg/kg, dose level High) was 41.6% and the Lym (1000 mg/kg, dose level High) was 79.4%. The MCH (1000 mg/kg, dose level High) was 21 pg, the MCHC (1000 mg/kg, dose level High) was 32.7% and the MCV (1000 mg/kg, dose level High) was 64.2 fL. It also gave a Mono (1000 mg/kg, dose level High) of 4%, a Neu (1000 mg/kg, dose level High) of 15.6% and a Plat (1000 mg/kg, dose level High) of 127.8 x10_4/uL. For the same compound, the RBC (1000 mg/kg, dose level High) was 647.8 x10_4/ul, the Ret (1000 mg/kg, dose level High) was 8.3% and the WBC (1000 mg/kg, dose level High) was 75.6 x10_2/uL. The KIDNEY_L (1000 mg/kg, dose level High) was 0.9 g, the KIDNEY_R (1000 mg/kg, dose level High) was 0.9 g and the KIDNEY_TOTAL (1000 mg/kg, dose level High) was 1.8 g. For the same compound, the LIVER (1000 mg/kg, dose level High) was 9.6 g, the A/G (1000 mg/kg, dose level High) was 1.1 and the ALP (1000 mg/kg, dose level High) was 1276 IU/L. It also gave an ALT (1000 mg/kg, dose level High) of 29.8 IU/L, an AST (1000 mg/kg, dose level High) of 74.4 IU/L and a BUN (1000 mg/kg, dose level High) of 12.8 mg/dL. It also gave a CRE (1000 mg/kg, dose level High) of 0.1 mg/dL, a Ca (1000 mg/kg, dose level High) of 10.3 mg/dL and a Cl (1000 mg/kg, dose level High) of 104.8 meq/L. For the same compound, the DBIL (1000 mg/kg, dose level High) was 0.008 mg/dL, the GLC (1000 mg/kg, dose level High) was 183.8 mg/dL and the IP (1000 mg/kg, dose level High) was 7.6 mg/dL. It also gave a K (1000 mg/kg, dose level High) of 4.1 meq/L, an LDH (1000 mg/kg, dose level High) of 313.2 IU/L and a Na (1000 mg/kg, dose level High) of 141 meq/L. It also gave a PL (1000 mg/kg, dose level High) of 112.4 mg/dL, an RALB (1000 mg/kg, dose level High) of 2.9 g/dL and a TBIL (1000 mg/kg, dose level High) of 0.01 mg/dL. For the same compound, the TC (1000 mg/kg, dose level High) was 57.2 mg/dL, the TG (1000 mg/kg, dose level High) was 47.6 mg/dL and the TP (1000 mg/kg, dose level High) was 5.5 g/dL. It also gave a gamma-GTP (1000 mg/kg, dose level High) of 0.8 IU/L.
